Measured values taken from the supplement of paper PMC10307832.

How the values were obtained:
Experiment in all cases: relative viability (nuclei count vs DMSO), 5 days (fraction); higher = more cells survive
LC-2-ad = tested on: LC-2-ad
Summary of the method: (§1)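 Nuclei were stained with Hoechst during a one-step fixation (final 0.05% Triton X-100, 1% formaldehyde, 1 ug/ml Hoechst) carried out 5 days after dosing, then counted on 4× images. The cells, lung cancer lines in 1536-well plates, had been dosed by pin tool the day after seeding with one drug alone or a fixed anchor-drug dose plus five library-drug doses (not always all listed) in √10 steps. Relative viability is the nuclei count in treated wells divided by that in vehicle wells, and each value is the median of duplicate plates.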

LU99A = tested on: LU99A
Summary of the method: as §1

NCI-H1793 = tested on: NCI-H1793
Summary of the method: as §1

A-427 = tested on: A-427
Summary of the method: as §1

NCI-H838 = tested on: NCI-H838
Summary of the method: as §1

NCI-H2228 = tested on: NCI-H2228
Summary of the method: as §1

LOU-NH91 = tested on: LOU-NH91
Summary of the method: as §1

SW 1573 = tested on: SW 1573
Summary of the method: as §1

RERF-LC-KJ = tested on: RERF-LC-KJ
Summary of the method: as §1

NCI-H460 = tested on: NCI-H460
Summary of the method: as §1

NCI-H1666 = tested on: NCI-H1666
Summary of the method: as §1

NCI-H1993 = tested on: NCI-H1993
Summary of the method: as §1

NCI-H1915 = tested on: NCI-H1915
Summary of the method: as §1

PC-3 [JPC-3] = tested on: PC-3 [JPC-3]
Summary of the method: as §1

NCI-H520 = tested on: NCI-H520
Summary of the method: as §1

IA-LM = tested on: IA-LM
Summary of the method: as §1

NCI-H1650 = tested on: NCI-H1650
Summary of the method: as §1

NCI-H1355 = tested on: NCI-H1355
Summary of the method: as §1

EKVX = tested on: EKVX
Summary of the method: as §1

NCI-H2347 = tested on: NCI-H2347
Summary of the method: as §1

LCLC-97TM1 = tested on: LCLC-97TM1
Summary of the method: as §1

BEN = tested on: BEN
Summary of the method: as §1

NCI-H23 = tested on: NCI-H23
Summary of the method: as §1

## CCCCCCCCCCCC1=C(O)C(=O)C=C(O)C1=O [Embelin] + CC1(C)CCC(c2ccc(Cl)cc2)=C(CN2CCN(c3ccc(C(=O)NS(=O)(=O)c4ccc(N[C@H](CCN5CCOCC5)CSc5ccccc5)c(S(=O)(=O)C(F)(F)F)c4)cc3)CC2)C1 [Navitoclax] (partner 0.5 µM)
LC-2-ad; first compound 0.08 µM
  relative viability: 0.406
LC-2-ad; first compound 0.8 µM
  relative viability: 0.625
LC-2-ad; first compound 2.53 µM
  relative viability: 0.451
LC-2-ad; first compound 8 µM
  relative viability: 0.51
LU99A; first compound 0.08 µM
  relative viability: 0.993
LU99A; first compound 0.8 µM
  relative viability: 0.943
LU99A; first compound 2.53 µM
  relative viability: 0.864
LU99A; first compound 8 µM
  relative viability: 0.755
NCI-H1793; first compound 0.08 µM
  relative viability: 0.461
NCI-H1793; first compound 0.8 µM
  relative viability: 0.46
NCI-H1793; first compound 2.53 µM
  relative viability: 0.498
NCI-H1793; first compound 8 µM
  relative viability: 0.369
A-427; first compound 0.08 µM
  relative viability: 0.975
A-427; first compound 0.8 µM
  relative viability: 0.929
A-427; first compound 2.53 µM
  relative viability: 0.939
A-427; first compound 8 µM
  relative viability: 1
NCI-H838; first compound 0.08 µM
  relative viability: 1.19
NCI-H838; first compound 0.8 µM
  relative viability: 1.25
NCI-H838; first compound 2.53 µM
  relative viability: 1.2
NCI-H838; first compound 8 µM
  relative viability: 1.18
NCI-H2228; first compound 0.08 µM
  relative viability: 0.793
NCI-H2228; first compound 0.8 µM
  relative viability: 0.955
NCI-H2228; first compound 2.53 µM
  relative viability: 1.28
NCI-H2228; first compound 8 µM
  relative viability: 0.604
LOU-NH91; first compound 0.08 µM
  relative viability: 0.77
LOU-NH91; first compound 0.8 µM
  relative viability: 1.02
LOU-NH91; first compound 2.53 µM
  relative viability: 0.837
LOU-NH91; first compound 8 µM
  relative viability: 0.637
SW 1573; first compound 0.08 µM
  relative viability: 0.973
SW 1573; first compound 0.8 µM
  relative viability: 0.976
SW 1573; first compound 2.53 µM
  relative viability: 1.02
SW 1573; first compound 8 µM
  relative viability: 1.02
RERF-LC-KJ; first compound 0.08 µM
  relative viability: 0.963
RERF-LC-KJ; first compound 0.8 µM
  relative viability: 1.14
RERF-LC-KJ; first compound 2.53 µM
  relative viability: 0.808
RERF-LC-KJ; first compound 8 µM
  relative viability: 0.821
NCI-H460; first compound 0.08 µM
  relative viability: 1.07
NCI-H460; first compound 0.8 µM
  relative viability: 1.26
NCI-H460; first compound 2.53 µM
  relative viability: 1.4
NCI-H460; first compound 8 µM
  relative viability: 1.08
NCI-H1666; first compound 0.08 µM
  relative viability: 1.21
NCI-H1666; first compound 0.8 µM
  relative viability: 1.22
NCI-H1666; first compound 2.53 µM
  relative viability: 0.995
NCI-H1666; first compound 8 µM
  relative viability: 0.999
NCI-H1993; first compound 0.08 µM
  relative viability: 0.958
NCI-H1993; first compound 0.8 µM
  relative viability: 0.84
NCI-H1993; first compound 2.53 µM
  relative viability: 0.916
NCI-H1993; first compound 8 µM
  relative viability: 0.893
NCI-H1915; first compound 0.08 µM
  relative viability: 0.822
NCI-H1915; first compound 0.8 µM
  relative viability: 0.784
NCI-H1915; first compound 2.53 µM
  relative viability: 0.793
NCI-H1915; first compound 8 µM
  relative viability: 0.796
PC-3 [JPC-3]; first compound 0.08 µM
  relative viability: 0.82
PC-3 [JPC-3]; first compound 0.8 µM
  relative viability: 0.752
PC-3 [JPC-3]; first compound 2.53 µM
  relative viability: 0.941
PC-3 [JPC-3]; first compound 8 µM
  relative viability: 0.72
NCI-H520; first compound 0.08 µM
  relative viability: 1.24
NCI-H520; first compound 0.8 µM
  relative viability: 1.26
NCI-H520; first compound 2.53 µM
  relative viability: 1.07
NCI-H520; first compound 8 µM
  relative viability: 1.04
IA-LM; first compound 0.08 µM
  relative viability: 1.03
IA-LM; first compound 0.8 µM
  relative viability: 0.87
IA-LM; first compound 2.53 µM
  relative viability: 0.92
IA-LM; first compound 8 µM
  relative viability: 0.305
NCI-H1650; first compound 0.08 µM
  relative viability: 1.27
NCI-H1650; first compound 0.8 µM
  relative viability: 1.37
NCI-H1650; first compound 2.53 µM
  relative viability: 1.57
NCI-H1650; first compound 8 µM
  relative viability: 1.36
NCI-H1355; first compound 0.08 µM
  relative viability: 1.04
NCI-H1355; first compound 0.8 µM
  relative viability: 1.05
NCI-H1355; first compound 2.53 µM
  relative viability: 1.06
NCI-H1355; first compound 8 µM
  relative viability: 0.884
EKVX; first compound 0.08 µM
  relative viability: 0.913
EKVX; first compound 0.8 µM
  relative viability: 0.895
EKVX; first compound 2.53 µM
  relative viability: 0.917
EKVX; first compound 8 µM
  relative viability: 0.938
NCI-H2347; first compound 0.08 µM
  relative viability: 0.746
NCI-H2347; first compound 0.8 µM
  relative viability: 0.95
NCI-H2347; first compound 2.53 µM
  relative viability: 1.01
NCI-H2347; first compound 8 µM
  relative viability: 0.811
LCLC-97TM1; first compound 0.8 µM
  relative viability: 0.46
LCLC-97TM1; first compound 2.53 µM
  relative viability: 0.499
LCLC-97TM1; first compound 8 µM
  relative viability: 0.399
BEN; first compound 0.08 µM
  relative viability: 0.0728
BEN; first compound 0.8 µM
  relative viability: 0.0709
BEN; first compound 2.53 µM
  relative viability: 0.0714
BEN; first compound 8 µM
  relative viability: 0.0735
NCI-H23; first compound 0.08 µM
  relative viability: 0.848
NCI-H23; first compound 0.8 µM
  relative viability: 0.904
NCI-H23; first compound 2.53 µM
  relative viability: 0.884
NCI-H23; first compound 8 µM
  relative viability: 0.74
